Laboratory results taken from patent US11578097B2, “Tetrazole derivatives of bile acids as FXR/TGR5 agonists and methods of use thereof” (Enanta Pharmaceuticals, Inc., priority 2014, dated 2023).

Target: T1, human FXR (NR1H4) (Homo sapiens, UniProt Q96RI1)
T1 construct: host or cells: CHO (Chinese hamster ovary) cells
T1 sequence (Q96RI1 1-486): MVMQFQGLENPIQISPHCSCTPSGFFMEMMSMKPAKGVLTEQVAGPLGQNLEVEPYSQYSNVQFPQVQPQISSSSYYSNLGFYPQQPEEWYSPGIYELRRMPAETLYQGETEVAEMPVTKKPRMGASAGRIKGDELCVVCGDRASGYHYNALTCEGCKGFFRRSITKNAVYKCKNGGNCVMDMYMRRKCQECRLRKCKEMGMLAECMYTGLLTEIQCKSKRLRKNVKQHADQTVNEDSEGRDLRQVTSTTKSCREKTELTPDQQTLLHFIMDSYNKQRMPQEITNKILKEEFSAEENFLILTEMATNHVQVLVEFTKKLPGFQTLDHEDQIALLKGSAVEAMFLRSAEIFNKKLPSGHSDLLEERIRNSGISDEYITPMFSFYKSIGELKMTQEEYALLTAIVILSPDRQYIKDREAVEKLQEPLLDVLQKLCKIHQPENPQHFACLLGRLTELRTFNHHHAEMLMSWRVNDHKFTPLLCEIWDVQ
Assay: Human FXR (NR1H4) reporter assay (Gal4 promoter driven transactivation, luciferase)
Assay type: cell-based
Conditions: for Efficacy (%): normalized to CDCA set as 100%
Text: Assays Human FXR (NR1H4) Assay Determination of a ligand mediated Gal4 promoter driven transactivation to quantify ligand binding mediated activation of FXR. FXR Reporter Assay kit purchased from Indigo Bioscience (Catalogue number: IB00601) to determine the potency and efficacy of compound developed by Enanta that can induce FXR activation. The principal application of this reporter assay system is to quantify functional activity of human FXR. The assay utilizes non-human mammalian cells, CHO (Chinese hamster ovary) cells engineered to express human NR1H4 protein (referred to as FXR). Reporter cells also incorporate the cDNA encoding beetle luciferase which catalyzes the substrates and yields photon emission. Luminescence intensity of the reaction is quantified using a plate-reading luminometer, Envision. Reporter Cells include the luciferase reporter gene functionally linked to an FXR responsive promoter. Thus, quantifying changes in luciferase expression in the treated reporter cells provides a sensitive surrogate measure of the changes in FXR activity. […] The assay is according to the manufacturer's instructions. In brief, the assay was performed in white, 96 well plates using final volume of 100 ul containing cells with different doses of compounds. Retrieve Reporter Cells from −80° C. storage. Perform a rapid thaw of the frozen cells by transferring a 10 ml volume of 37° C. cell recovery medium into the tube of frozen cells. Recap the tube of Reporter Cells and immediately place it in a 37° C. water bath for 5-10 minutes. Retrieve the tube of Reporter Cell Suspension from the water bath. Sanitize the outside surface of the tube with a 70% alcohol swab, and then transfer it into the cell culture hood. Dispense 90 μl of cell suspension into each well of the 96-well Assay Plate. Transfer the plate into 37° C. incubator, allowing the cells adherent to the bottom of the well. Dilute compounds in Dilution Plate (DP), and administrate to cells at Assay Plate (AP). DMSO content of the samples was kept at 0.2%. Cells were incubated for additional 22 hours before luciferase activities were measured. Thirty minutes before intending to quantify FXR activity, remove Detection Substrate and Detection Buffer from the refrigerator and place them in a low-light area so that they may equilibrate to room temperature. Remove the plate's lid and discard all media contents by ejecting it into an appropriate waste container. Gently tap the inverted plate onto a clean absorbent paper towel to remove residual droplets. Cells will remain tightly adhered to well bottoms. Add 100 μl of luciferase detection reagent to each well of the assay plate. Allow the assay plate to rest at room temperature for at least 5 minutes following the addition of LDR. Set the instrument (Envision) to perform a single 5 second “plate shake” prior to reading the first assay well. Read time may be 0.5 second (500 mSec) per well.

SMILES	EC50	Efficacy (%)
CC[C@H]1[C@@H](O)[C@@H]2[C@H](CC[C@]3(C)[C@@H]([C@H](C)CCCc4nnn[nH]4)CC[C@@H]23)[C@@]2(C)CC[C@@H](O)C[C@@H]12 [Example 2]	100 to 1000 nM	354%
CC[C@H]1[C@@H](O)[C@@H]2[C@H](CC[C@]3(C)[C@@H]([C@H](C)CCC(=O)Nc4nnn[nH]4)CC[C@@H]23)[C@@]2(C)CC[C@@H](O)C[C@@H]12 [Example 6]	1000 to 10000 nM	105%
CC[C@H]1[C@@H](O)[C@@H]2[C@H](CC[C@]3(C)[C@@H]([C@H](C)CCCCCc4nn[nH]n4)CC[C@@H]23)[C@@]2(C)CC[C@@H](O)C[C@@H]12 [Example 5]	100 to 1000 nM	191%
CC[C@H]1[C@@H](O)[C@@H]2[C@H](CC[C@]3(C)[C@@H]([C@H](C)Cc4nnn[nH]4)CC[C@@H]23)[C@@]2(C)CC[C@@H](O)C[C@@H]12 [Example 3]	1000 to 10000 nM	192%
CC[C@H]1[C@@H](O)[C@@H]2[C@H](CC[C@]3(C)[C@@H]([C@H](C)CCCCc4nn[nH]n4)CC[C@@H]23)[C@@]2(C)CC[C@@H](O)C[C@@H]12 [Example 4]	100 to 1000 nM	234%
CC[C@H]1[C@@H](O)[C@@H]2[C@H](CC[C@]3(C)[C@@H]([C@H](C)CCc4nnn[nH]4)CC[C@@H]23)[C@@]2(C)CC[C@@H](O)C[C@@H]12 [Example 1]	1000 to 10000 nM	397%
